Assay results: ChEMBL document CHEMBL1142401, “QSAR modeling of the rodent carcinogenicity of nitrocompounds” (2008)

Organism: Rattus norvegicus
Assay: Anticarcinogenic activity in rat assessed as induction of tumors per day
Format: functional

SMILES | TD50 [µmol/kg] | pTD50
CN(C)Nc1nc(-c2ccc([N+](=O)[O-])o2)cs1 | 1.538 | 0.187
CC[N+](=O)[O-] [NITROETHANE] | 29174.093 | 4.465
CNc1ccc(N(CCO)CCO)cc1[N+](=O)[O-] [HC BLUE NO. 1] | 1680.55 | 3.23
CCCN(CCC)c1c([N+](=O)[O-])cc(C(F)(F)F)cc1[N+](=O)[O-] [TRIFLURALIN] | 17567.456 | 4.245
Nc1nc(N)nc(-c2ccc([N+](=O)[O-])o2)n1 | 7.697 | 0.886
Cn1cnc([N+](=O)[O-])c1Sc1ncnc2[nH]cnc12 [AZATHIOPRINE] | 36.428 | 1.561
CC(=O)Nc1nnc(-c2ccc([N+](=O)[O-])o2)s1 | 34.773 | 1.541
CC(=O)Nc1nc(NC(C)=O)nc(-c2ccc([N+](=O)[O-])o2)n1 | 41.798 | 1.621
Nc1nnc(-c2ccc([N+](=O)[O-])o2)o1 | 13.971 | 1.145
NNc1nc(-c2ccc([N+](=O)[O-])o2)cs1 | 12.51 | 1.097
NNc1nc(-c2ccc([N+](=O)[O-])cc2)cs1 | 3.145 | 0.498
Nc1nc(-c2ccc([N+](=O)[O-])o2)cs1 | 27.699 | 1.442
CC(=O)NCc1nc(-c2ccc([N+](=O)[O-])o2)no1 | 20.62 | 1.314
CC(=O)Nc1nc(-c2ccc([N+](=O)[O-])o2)cs1 | 28.63 | 1.457
CCNC(=O)Nc1ncc([N+](=O)[O-])s1 [NITHIAZIDE] | 605.88 | 2.78
O=[N+]([O-])OCC(CO[N+](=O)[O-])O[N+](=O)[O-] [NITROGLYCERIN] | 1448.787 | 3.161
O=[N+]([O-])c1ccccc1 [NITROBENZENE] | 47.681 | 1.678
CC(C)(C)c1cc([N+](=O)[O-])cc([N+](=O)[O-])c1OS(C)(=O)=O | 8.357 | 0.922
Nc1nnc(-c2ccc([N+](=O)[O-])o2)s1 | 3.12 | 0.494
O=[N+]([O-])c1ccc(-c2nnc(O)o2)o1 | 43.682 | 1.64
O=C1CN(/N=C/c2ccc([N+](=O)[O-])o2)C(=O)N1 [NITROFURANTOIN] | 228.001 | 2.358
O=[N+]([O-])c1cccc2cccnc12 | 54.836 | 1.739
Cc1ncc([N+](=O)[O-])n1CCO [METRONIDAZOLE] | 356.989 | 2.553
COc1c(Cl)c(Cl)c([N+](=O)[O-])c(Cl)c1Cl | 65.65 | 1.82
O=C(N[C@H](CO)[C@H](O)c1ccc([N+](=O)[O-])cc1)C(Cl)Cl [CHLORAMPHENICOL] | 860.336 | 2.935

SMILES | TD50 [µmol/kg] | pTD50
Nc1ncc([N+](=O)[O-])s1 | 223.922 | 2.35
CC(C)[N+](=O)[O-] | 3288.692 | 3.517
N/C(=N\O)c1ccc([N+](=O)[O-])o1 | 245.455 | 2.39
O=[N+]([O-])c1ccc(-c2nc(NCCO)c3ccccc3n2)s1 | 12.139 | 1.084
Cc1cc(C)nc(-c2ccc([N+](=O)[O-])o2)n1 | 11.907 | 1.076
O=[N+]([O-])c1ccc2c3c(cccc13)CC2 | 30.02 | 1.48
CN(C)C/N=c1\[nH]nc(/C=C/c2ccc([N+](=O)[O-])o2)o1 | 73.052 | 1.864
Nc1ccc([N+](=O)[O-])cc1 [4-NITROANILINE] | 65.521 | 1.816
O=CNc1nc(-c2ccc([N+](=O)[O-])o2)cs1 | 21.195 | 1.326
NC(=O)/C(=C\c1ccc([N+](=O)[O-])o1)c1ccco1 | 45.932 | 1.662
O=[N+]([O-])c1ccc2ccc3cccc4ccc1c2c34 [1-NITROPYRENE] | 13.468 | 1.129
O=CNNc1nc(-c2ccc([N+](=O)[O-])o2)cs1 [NIFURTHIAZOLE] | 13.925 | 1.144
CC(=O)OC(OC(C)=O)c1ccc([N+](=O)[O-])o1 | 431.796 | 2.635
CC(C)=NNc1nc(-c2ccc([N+](=O)[O-])o2)cs1 | 22.721 | 1.356
NC(=O)N/N=C/c1ccc([N+](=O)[O-])o1 [NITROFURAZONE] | 32.907 | 1.517
Cl.O=C1OC(CN2CCOCC2)CN1/N=C/c1ccc([N+](=O)[O-])o1 (stereo not drawn) | 8.665 | 0.938
CC1CN(/N=C/c2ccc([N+](=O)[O-])o2)C(=O)N1 (stereo not drawn) [NIFURIMIDE] | 22.418 | 1.351
O=[N+]([O-])c1ccc(-c2cnc3ccccn23)o1 | 68.938 | 1.838
O=C1NCCN1/N=C/c1ccc([N+](=O)[O-])o1 [NIFURADENE] | 23.646 | 1.37
O=C1NC(c2ccc([N+](=O)[O-])s2)Nc2ccccc21 (stereo not drawn) | 5.558 | 0.745
O=[N+]([O-])c1ccc(-c2nc(N3CCOCC3)c3ccccc3n2)s1 | 14.692 | 1.167
O=C(Nc1nc(-c2ccc([N+](=O)[O-])o2)cs1)C(F)(F)F | 18.164 | 1.259
COc1ccccc1[N+](=O)[O-] [2-NITROANISOLE] | 69.87 | 1.84
Cc1ncc([N+](=O)[O-])n1C [DIMETRIDAZOLE] | 120.458 | 2.081
